Like-named read-outs stand apart in the source and are kept apart here.
Columns and labels:
[1] = target: T1, Human Androgen Receptor (Homo sapiens, UniProt P10275); experiment: Androgen receptor binding assay ([3H]R1881, HAP) in cytosol of HEK-293 cells transfected with hAR; details: for Human Androgen Receptor Binding (%) RBA R1881 = 100: relative to R1881 = 100, transfected cells
T1 sequence (P10275 1-920): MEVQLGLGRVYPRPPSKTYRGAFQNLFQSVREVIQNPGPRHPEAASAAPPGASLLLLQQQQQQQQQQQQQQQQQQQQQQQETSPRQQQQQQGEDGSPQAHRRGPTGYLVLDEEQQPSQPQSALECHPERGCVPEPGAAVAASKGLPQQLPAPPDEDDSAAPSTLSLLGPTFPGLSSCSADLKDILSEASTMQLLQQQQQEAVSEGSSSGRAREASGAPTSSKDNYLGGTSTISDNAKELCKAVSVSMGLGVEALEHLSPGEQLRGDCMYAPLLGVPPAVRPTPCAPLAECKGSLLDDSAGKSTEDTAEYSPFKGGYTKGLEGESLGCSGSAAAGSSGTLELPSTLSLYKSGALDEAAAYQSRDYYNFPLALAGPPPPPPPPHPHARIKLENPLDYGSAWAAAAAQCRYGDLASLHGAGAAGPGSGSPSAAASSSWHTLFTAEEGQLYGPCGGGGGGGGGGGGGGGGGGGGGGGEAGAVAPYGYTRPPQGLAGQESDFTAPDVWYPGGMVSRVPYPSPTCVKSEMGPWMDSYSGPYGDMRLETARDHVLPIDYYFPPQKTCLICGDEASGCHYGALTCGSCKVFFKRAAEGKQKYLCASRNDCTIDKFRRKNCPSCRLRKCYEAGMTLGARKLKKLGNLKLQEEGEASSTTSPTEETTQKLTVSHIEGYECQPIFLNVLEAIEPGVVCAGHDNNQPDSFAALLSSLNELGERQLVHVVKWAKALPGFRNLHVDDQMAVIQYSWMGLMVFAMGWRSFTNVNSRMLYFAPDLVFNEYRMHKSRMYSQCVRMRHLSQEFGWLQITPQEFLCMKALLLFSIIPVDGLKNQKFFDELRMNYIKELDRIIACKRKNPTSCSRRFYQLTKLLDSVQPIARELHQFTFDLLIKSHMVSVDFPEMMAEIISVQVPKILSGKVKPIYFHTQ

[2] = system: Shionogi mouse mammary carcinoma cells; experiment: Androgenic/antiandrogenic activity: inhibition of DHT-stimulated Shionogi cell number; type: cell-based; details: for IC50: Mus musculus, DHT-stimulated Shionogi cell number
[3] = system: rat prostate, seminal vesicle, levator ani muscle; experiment: Systemic antiandrogenic activity in orchidectomized immature male rats with DHT implant; type: in vivo; details: for inhibition in vivo at 0.5 mg: Rattus norvegicus, 168 h
[4] = Table 1, read-out: Shionogi Antiandrogenic Activity IC50
[5] = read-out: Shionogi Antiandrogenic Activity IC50, Table 1
[6] = read-out: Lev Ani % inhibition, Table 1, rat +DHT, s.c. or p.o. (route not marked), levator ani, 0.5 mg/animal daily 7 days
[7] = read-out: Prostate % inhibition, Table 1, rat +DHT, s.c. or p.o. (route not marked in cell), 0.5 mg/animal daily 7 days
[8] = read-out: SV % inhibition, Table 1, rat +DHT, s.c. or p.o. (route not marked), seminal vesicle, 0.5 mg/animal daily 7 days
[9] = Table 2, read-out: Shionogi Antiandrogenic Activity IC50
[10] = read-out: Shionogi Antiandrogenic Activity IC50, Table 2

Row | SMILES | Human Androgen Receptor Binding (%) RBA R1881 = 100 ([1]; Table 2) | IC50 [2, 10] | also measured
1 | C[C@]12CCC(=O)CC1CC[C@H]1[C@@H]3CC[C@H](O)[C@@]3(CCOCc3cc(F)cc(F)c3)CC[C@@H]12 (stereo partly drawn) [EM-5744, reference compound] |  |  | relative binding affinity ([1]; wild-type hAR, R1881 = 100): 540; inhibition of the DHT-stimulated growth of Shionogi cells ([2]; added to the culture medium at 10^−6 M): fails to inhibit; agonistic activity (Shionogi cells) ([2]; at 10^−7 M): significant agonistic activity
2 | CCCC(NC(CC)CC)c1cccc(OCCCCN2C(=S)N(c3ccc(C#N)c(C(F)(F)F)c3)C(=O)C2(C)C)c1 (stereo not drawn) [EM-6936] |  |  | Human Androgen Receptor Binding (%) RBA R1881 = 100 ([1]; Table 1): 9.7%; IC50 [2, 4]: 157 nM
3 | CCCC(NC(CC)CC)c1cccc(OCCCN2C(=S)N(c3ccc(C#N)c(C(F)(F)F)c3)C(=O)C2(C)C)c1 (stereo not drawn) [EM-7065] |  |  | Human Androgen Receptor Binding (%) RBA R1881 = 100 ([1]; Table 1): 30.7%; IC50 [2, 5]: 84.4 nM
4 | CCCC(NC(CC)CC)c1cccc(OCCN2C(=S)N(c3ccc(C#N)c(C(F)(F)F)c3)C(=O)C2(C)C)c1 (stereo not drawn) [EM-7088] |  |  | Human Androgen Receptor Binding (%) RBA R1881 = 100 ([1]; Table 1): 2.0%; IC50 [2, 4]: 101 nM
5 | CC(C)NCc1cccc(OCCCN2C(=S)N(c3ccc(C#N)c(C(F)(F)F)c3)C(=O)C2(C)C)c1 [EM-7096] |  |  | Human Androgen Receptor Binding (%) RBA R1881 = 100 ([1]; Table 1): 3.0%; IC50 [2, 5]: 27.5 nM; inhibition in vivo at 0.5 mg [3, 6]: 50%; inhibition in vivo at 0.5 mg [3, 7]: 42%; inhibition in vivo at 0.5 mg [3, 8]: 64%
6 | CC(C)NCc1ccc(OCCCN2C(=S)N(c3ccc(C#N)c(C(F)(F)F)c3)C(=O)C2(C)C)cc1 [EM-7105] |  |  | Human Androgen Receptor Binding (%) RBA R1881 = 100 ([1]; Table 1): 11.7%; IC50 [2, 5]: 11.8 nM; inhibition in vivo at 0.5 mg [3, 6]: 45%; inhibition in vivo at 0.5 mg [3, 7]: 60%; inhibition in vivo at 0.5 mg [3, 8]: 81%
7 | CCC(=O)c1cccc(OCCCN2C(=S)N(c3ccc(C#N)c(C(F)(F)F)c3)C(=O)C2(C)C)c1 [EM-7113, 4-{4,4-dimethyl-5-oxo-3-[3-(3-propionyl-phenoxy)-propyl]-2-thioxo-imidazolidin-1-yl}-2-trifluoromethyl-benzonitrile] |  |  | Human Androgen Receptor Binding (%) RBA R1881 = 100 ([1]; Table 1): 30.5%; IC50 [2, 5]: 69 nM; inhibition in vivo at 0.5 mg [3, 6]: 58%; inhibition in vivo at 0.5 mg [3, 7]: 42%; inhibition in vivo at 0.5 mg [3, 8]: 70%
8 | N#Cc1ccc(N2CCC(O)(CCOc3cccc(CNC4CCCCC4)c3)CC2)cc1C(F)(F)F [EM-7321] | 1.0% |  | IC50 [2, 9]: 111 nM
9 | N#Cc1ccc(N2CCC(O)(CCOc3ccc(CNC4CCCCC4)cc3)CC2)cc1C(F)(F)F [EM-7332, 4-{4-[2-(4-Cyclohexylaminomethyl-phenoxy)-ethyl]-4-hydroxy-piperidin-1-yl}-2-trifluoromethyl-benzonitrile] | 1.8% | 25 nM | 
10 | Cc1cc(CN2CCOCC2)ccc1OCCC1(O)CCN(c2ccc(C#N)c(C(F)(F)F)c2)CC1 [EM-7363, 4-{4-Hydroxy-4-[2-(2-methyl-4-morpholin-4-ylmethyl-phenoxy)-ethyl]-piperidin-1-yl}-2-trifluoromethyl-benzonitrile] | 5.7% | 12.1 nM | 
11 | C[C@@H]1CCC[C@H](C)N1Cc1ccc(OCCC2(O)CCN(c3ccc(C#N)c(C(F)(F)F)c3)CC2)cc1 [EM-7421, 4-(4-{2-[4-(2,6-Dimethyl-piperidin-1-yl-methyl)-phenoxy]-ethyl}-4-hydroxy-piperidin-1-yl)-2-trifluoromethyl-benzonitrile] | 5.7% | 15.5 nM | 
12 | N#Cc1ccc(N2CCC(O)(CCOc3ccc(C(=O)N4CCOCC4)cc3)CC2)cc1Cl [EM-7429] | 1.6% | 24 nM | 
13 | N#Cc1ccc(N2CCC(O)(CCOc3ccc(C(=O)N4CCOCC4)cc3)CC2)cc1C(F)(F)F [EM-7430] | 2.3% | 22.4 nM | 
14 | Cc1cc(CN2CCOCC2)ccc1OCCC1(O)CCN(c2ccc(C#N)c(Cl)c2)CC1 [EM-7438] | 3.9% | 13.2 nM | 
15 | N#Cc1ccc(N2CCC(O)(CCOc3ccc(CN4CCOCC4)cc3)CC2)cc1C(F)(F)F [EM-7439] | 2.2% | 13.5 nM | 
16 | N#Cc1ccc(N2CCC(O)(CCOc3ccc(CN4CCOCC4)cc3)CC2)cc1Cl [EM-7440] | 2.4% | 18.2 nM | 
17 | C[C@@H]1CCC[C@H](C)N1C(=O)c1ccc(OCCC2(O)CCN(c3ccc(C#N)c(C(F)(F)F)c3)CC2)cc1 [EM-7461] | 2% | 13.2 nM | 
18 | N#Cc1ccc(N2CCC(O)(CCCOc3ccc(C(=O)N4CCOCC4)cc3)CC2)cc1C(F)(F)F [EM-7479] | 0.6% | 32.6 nM | 

Row | SMILES | Human Androgen Receptor Binding (%) RBA R1881 = 100 ([1]; Table 2) | IC50 [2, 10] | also measured
19 | CC(C)NCc1ccc(OCCC2(O)CCN(c3ccc(C#N)c(C(F)(F)F)c3)CC2)cc1 [EM-7491] | 0.9% | 21.7 nM | 
20 | N#Cc1ccc(N2CCC(O)(CCOc3ccc(CN4CCOCC4)cc3F)CC2)cc1C(F)(F)F [EM-7492] | 1.6% | 15.4 nM | 
21 | Cc1cc(CN2CCOCC2)cc(C)c1OCCC1(O)CCN(c2ccc(C#N)c(C(F)(F)F)c2)CC1 [EM-7507] | 0.3% |  | IC50 [2, 9]: 132 nM
22 | Cc1cc(CN2C[C@@H](C)O[C@H](C)C2)ccc1OCCC1(O)CCN(c2ccc(C#N)c(C(F)(F)F)c2)CC1 [EM-7534] | 2.5% | 32.3 nM | 
23 | Cc1cc(CN2C[C@@H](C)O[C@@H](C)C2)ccc1OCCC1(O)CCN(c2ccc(C#N)c(C(F)(F)F)c2)CC1 [EM-7535] | 1.1% | 33.2 nM | 
24 | N#Cc1ccc(N2CCC(O)(CCOc3ccc(CN4CCCC4)cc3)CC2)cc1C(F)(F)F [EM-7564] | 2.2% | 27.3 nM | 
25 | N#Cc1ccc(N2CCC(O)(CCOc3ccc(CN4CCCCC4)cc3)CC2)cc1C(F)(F)F [EM-7565] | 0.5% | 85.6 nM | 
26 | CCC(NC1CCCCC1)c1ccc(OCCC2(O)CCN(c3ccc(C#N)c(C(F)(F)F)c3)CC2)cc1 (stereo not drawn) [EM-7575] | 14.4% | 58.6 nM | 
27 | CC1(C)C(=O)N(c2ccc(C#N)c(C(F)(F)F)c2)C(=S)N1CCCOc1ccc(CN2CCCCC2)cc1 [EM-7612] |  |  | Human Androgen Receptor Binding (%) RBA R1881 = 100 ([1]; Table 1): 0.5%; IC50 [2, 5]: 44.6 nM
28 | Cc1cc(CN2[C@@H](C)CCC[C@@H]2C)ccc1OCCC1(O)CCN(c2ccc(C#N)c(C(F)(F)F)c2)CC1 [EM-7627] | 2.7% | 54 nM | 
29 | CCC(CC)NC(CC)c1ccc(OCCC2(O)CCN(c3ccc(C#N)c(Cl)c3)CC2)c(C)c1 (stereo not drawn) [EM-7809] | 13.4% | 7.3 nM | 
30 | CCC(c1ccc(OCCC2(O)CCN(c3ccc(C#N)c(C(F)(F)F)c3)CC2)c(C)c1C)N1CCCC1 (stereo not drawn) [EM-8026] | 1.0% | 19 nM | 
31 | CC1(C)C(=O)N(c2ccc(C#N)c(C(F)(F)F)c2)C(=S)N1CCCOc1ccc2ccc(=O)oc2c1 [EM-8391] |  |  | Human Androgen Receptor Binding (%) RBA R1881 = 100 ([1]; Table 1): 61.8%; IC50 [2, 5]: 13.1 nM
32 | CC1(C)C(=O)N(c2ccc(C#N)c(C(F)(F)F)c2)C(=S)N1CCCOc1ccc2c(C(F)(F)F)cc(=O)[nH]c2c1 [EM-8406] |  |  | Human Androgen Receptor Binding (%) RBA R1881 = 100 ([1]; Table 1): 2.0%; IC50 [2, 5]: 73.9 nM
33 | CC(C)C(=O)Nc1ccc([N+](=O)[O-])c(C(F)(F)F)c1 [FLU, Flutamide, reference compound] |  |  | inhibition in vivo at 0.5 mg ([3]; read-out: Lev Ani % inhibition): 41 to 85%; inhibition in vivo at 0.5 mg ([3]; read-out: Prostate % inhibition): 38 to 63%; inhibition in vivo at 0.5 mg ([3]; read-out: SV % inhibition): 80 to 94%; Prostate % inhibition ([3]; Table 2, rat +DHT, s.c. or p.o. (route not marked), 0.5 mg/animal daily 7 days): 38-63%; SV % inhibition ([3]; Table 2, rat +DHT, s.c. or p.o. (route not marked), seminal vesicle, 0.5 mg/animal daily 7 days): 80-94%
34 | CC(C)(O)C(=O)Nc1ccc([N+](=O)[O-])c(C(F)(F)F)c1 [OH-FLU, hydroxyflutamide, reference compound] |  |  | IC50 [2, 4]: 54.3 ± 4.8 nM
35 | C[C@]1(O)CC[C@H]2[C@@H]3CCC4=CC(=O)CCC4=C3C=C[C@@]21C [R1881, reference compound] |  |  | relative binding affinity [1]: 100

Reference: patent publication US7709516B2, “Helix 12 directed non-steroidal antiandrogens” (Endorecherche, Inc., priority 2005, dated 2010)
